According to US20080226682A1, “Immunoactive Compositions for Improved Oral Delivery of Vaccines and Therapeutic Agents” (PerOs Systems Technologies, Inc., priority 2007, published 2008):

B1: PSA: small pea (Pisum sativum) lectin (protein, UniProt P02867 31-217; P02867 218-275, looked up)
Lectin beta chain: TETTSFLITKFSPDQQNLIFQGDGYTTKEKLTLTKAVKNTVGRALYSSPIHIWDRETGNVANFVTSFTFVINAPNSYNVADGFTFFIAPVDTKPQTGGGYLGVFNSAEYDKTTQTVAVEFDTFYNAAWDPSNRDRHIGIDVNSIKSVNTKSWKLQNGEEANVVIAFNAATNVLTVSLTYPNSLEEEN
Lectin alpha chain: VTSYTLSDVVSLKDVVPEWVRIGFSATTGAEYAAHEVLSWSFHSELSGTSSSKQAADA

Tests used:
shrimp immune cells [1] = conditions: purified isoflavone
canine immune cells [2] = conditions: purified isoflavone
equine immune cells [3] = conditions: purified isoflavone
salmon immune cells [4] = conditions: purified isoflavone
feline immune cells [5] = conditions: purified isoflavone
human immune cells [6] = conditions: purified isoflavone
bovine immune cells [7] = conditions: purified isoflavone
swine immune cells = conditions: purified isoflavone
[8] = system: LPS-induced NO generation in RAW264.7 cells; test: LPS-induced NO generation in RAW264.7 cells (1 hour pretreatment with isoflavones or saponins); format: cell-based, murine; conditions: 25 μM; FIG. 10
Procedure: In yet another exemplary embodiment, the ability of isoflavones to modulate the production of LPS-induced NO generation in RAW264.7 cells was investigated. […] Cells were incubated with isoflavones for 1 hour at 37±2° C.
Cells were incubated with saponins 1 hour at 37±2° C.

[9] = system: PHA induced IFN-gamma production in calf PBMC; test: PHA induced IFN-gamma production in calf PBMC; format: cell-based; conditions: PHA-E+L 1 ug/ml, 3 days, FIG. 9
Procedure: Calf PBMC were isolated as described in Example 3. […] After incubation, supernatants were sampled. Supernatants from identical treatment wells were combined and stored frozen at −18±5° C. until tested for IFN-gamma. Supernatant samples were tested for bovine IFN-gamma using a commercial kit (Thermo Scientific). Briefly, plates were coated overnight with capture antibody in carbonate coating buffer. […] Plates were washed and treated with streptavidin-HRP for 30 minutes at RT. Plates were washed and substrate was added for 20 minutes at RT in the dark. Following incubation, stop solution was added to each well, and plates were read at 450 nm (550 nm reference wavelength). Data was plotted as Stimulation Index (IFN-gamma concentration of sample treated with isoflavone divided by IFN-gamma concentration of sample treated with PHA only) vs. isoflavone concentration. Since isoflavones dilutions were made in DMSO, the DMSO carrier was tested at the corresponding concentrations to determine the carrier effect.

trout immune cells [10] = format: cell-based; conditions: purified isoflavone
From the text: The pellet is suspended in RPMI medium.

[11] = Blood glucose after oral administration of insulin; format: in vivo, CD1 mice; conditions: FIG. 14
Procedure: Preparation of protease inhibitor extracts. Protease inhibitors (4.44 g beans and 0.56 g albumen) were homogenized in Tris-HCL buffer (pH 7.5). The mixture was divided in equal volumes, centrifuged (3500 RPM for 10 minutes) and supernatants were pooled together. Supernatant was then concentrated by centrifugation through 10K cut-off Millipore filter tubes.
Preparation of uptake-increasing agents solution. In a 15 ml falcon tube, 1 ml of carbonate-bicarbonate buffer (0.25 M, pH 9.5) was added to 45 mg of sodium deoxycholate and stirred until complete dissolution. In another 15 ml falcon tube, 7 ml of carbonate-bicarbonate buffer (0.25 M, pH 9.5) was added to 450 mg of EDTA and stirred until complete dissolution. Both solutions were then pooled together.
Final preparation of liquid formulation. […] The liquid formulation was then kept at 4° C. until use.
Experimental Design. Twenty four female CD1 mice of an average weight of 30 g were used in this study (see Table 14 for the identification of experimental groups). […]
CD1 mice were gavaged with insulin (200 U/kg) incorporated in a liquid composition (group A) and in water (group B). […] At determined time periods post-administration (see Table 13), blood samples were taken via the retroorbital sinus and blood glucose levels were measured individually for each animal using an Ascencia™ DEX-2 blood glucose meter kit.

bovine immune cells [12] = test: Leukocyte mitogenic response (BrdU-based ELISA, stimulation index); format: cell-based; conditions: purified lectin at mitogen concentration (5-40 μg/mL), day 4
feline immune cells [13] = test: as above; format: cell-based; conditions: purified lectin at mitogen concentration (5-40 μg/mL), day 4
salmon immune cells [14] = test: as above; format: cell-based; conditions: purified lectin at mitogen concentration (5-40 μg/mL), day 4
equine immune cells [15] = test: as above; format: cell-based; conditions: purified lectin at mitogen concentration (5-40 μg/mL), day 4
human immune cells [16] = test: as above; format: cell-based; conditions: purified lectin at mitogen concentration (5-40 μg/mL), day 4
shrimp immune cells [17] = test: as above; format: cell-based; conditions: purified lectin at mitogen concentration (5-40 μg/mL), day 4
canine immune cells [18] = test: as above; format: cell-based; conditions: purified lectin at mitogen concentration (5-40 μg/mL), day 4
trout immune cells [19] = test: as above; format: cell-based; conditions: purified lectin at mitogen concentration (5-40 μg/mL), day 4
From the text: Lymphocytes are a representative immune system prototypic cell that may be used in in vitro assays for immunological effects of lectins, saponins and other components of natural plant or animal products. Exemplary lymphocytes for representative target species may be obtained and used in the Examples disclosed herein. The effects of various compositions on lymphocyte proliferation is examined using a standard tetrazolium based colorimetric assay (MTT). An Alamar blue-based colorimetric assay gave equivalent results to [^3H]-thymidine incorporation assay. The MTT colorimetric assay has also been used in lymphocyte proliferation assays using chicken splenocytes. These and other known assays may be utilized in the methods disclosed herein.
In one non-limiting example, cells from anterior fish kidney are obtained by forcing the aseptically removed tissue through a 100 μm cell strainer into L-15 medium supplemented with 2% fetal bovine serum (FBS), 100 U mL^−1 penicillin, 100 μg mL^−1 streptomycin, and 10 U mL^−1 sodium heparin (Processing medium, PM). The single-cell suspension is removed from the settled tissue fragments and cells are pelleted by centrifugation at 500×g for 10 min at 4° C. […]
The number of viable kidney or blood leukocytes isolated from each fish is determined by trypan blue exclusion (0.1% trypan blue in PM), and the cells are pelleted as described above.
Mitogen concentrations used to stimulate the isolated leukocytes are as follows: 10 μg mL^−1 SBA, 10 μg mL^−1 PHA-E or PHA-L, 5 μg mL^−1 LBL, 20 μg mL^−1 LCA or LOA, 10 μg mL^−1 ConA, 40 ug mL^−1 PSA and 5 μg mL^−1 PNA. […] The mitogenic response is measured on the fourth day of incubation post-mitogen stimulation using a BrdU-based ELISA at room temperature as described (Gauthier, D. T. 2003). Stimulation index (SI) values are calculated as the replicate mean optical density for a given set of mitogen-treated leukocytes divided by the replicate mean optical density of the associated mitogen free (control) leukocytes. […]

Molecule	Cytokine Secretion Profile (determined by RT-PCR) (shrimp immune cells [1])	Cytokine Secretion Profile (determined by RT-PCR) (canine immune cells [2])	Cytokine Secretion Profile (determined by RT-PCR) (equine immune cells [3])	Cytokine Secretion Profile (determined by RT-PCR) (salmon immune cells [4])	Cytokine Secretion Profile (determined by RT-PCR) (feline immune cells [5])	Cytokine Secretion Profile (determined by RT-PCR) (human immune cells [6])	Cytokine Secretion Profile (determined by RT-PCR) (bovine immune cells [7])	Cytokine Secretion Profile (determined by RT-PCR) (swine immune cells)	effect on stimulation indices (IFN-gamma) compared to DMSO control ([9]; 1 μM isoflavone)	effect on stimulation indices (IFN-gamma) compared to DMSO control ([9]; 100 μM isoflavone)	Cytokine Secretion Profile (determined by RT-PCR) (trout immune cells [10])	effect on stimulation indices (IFN-gamma) compared to DMSO control ([9]; 10 nM or 100 nM isoflavone)	other results
COc1ccc(-c2coc3cc(O)cc(O)c3c2=O)cc1 [biochanin A, 5,7-dihydroxy 4′-methoxy isoflavone]	None	IL-4, IL-10	IL-10	IL-4	IL-4, IL-10	none	None	None	pronounced increase	inhibitory effect	None	–	fold higher inhibitory activity compared to daidzein or genistein [8]: approximately 10 fold
O=c1c(-c2ccc(O)cc2)coc2cc(O)ccc12 [daidzein]	IFN-gamma	None	None	IFN-gamma	IL-4	IFN-gamma	IL-10	None	pronounced increase	inhibitory effect	IFN-gamma	pronounced decrease	–
O=c1c(-c2ccc(O)cc2)coc2cc(O)cc(O)c12 [genistein, 4′5,7-trihydroxyisoflavone]	None	None	None	IL-10	None	IL-10	IL-10	IL-4	pronounced increase	no effect	IL-4, IL-10	pronounced decrease	–
insulin: Human recombinant insulin (Sigma, #I2643)	–	–	–	–	–	–	–	–	–	–	–	–	effect on blood glucose levels ([11]; 200 U/kg oral gavage in liquid composition (Formula 2)): markedly reduced blood glucose levels; effect on blood glucose levels ([11]; 200 U/kg oral gavage in water): no efficacy in reducing glucose levels
B1	–	–	–	–	–	–	–	–	–	–	–	–	Immunomodulatory effect (stimulation index class) (bovine immune cells [12]): +++ (≧10 is assigned a value of +++ (strong mitogen)); Immunomodulatory effect (stimulation index class) (feline immune cells [13]): −− (<1 is assigned a value of −− (anti-mitogenic)); Immunomodulatory effect (stimulation index class) (salmon immune cells [14]): −− (<1 is assigned a value of −− (anti-mitogenic)); Immunomodulatory effect (stimulation index class) (equine immune cells [15]): + (between 1 and 4.9 is assigned a value of + (weak mitogen)); Immunomodulatory effect (stimulation index class) (human immune cells [16]): ++ (between 5 and 9.9 is assigned a value of ++ (moderate mitogen)); Immunomodulatory effect (stimulation index class) (shrimp immune cells [17]): +++ (≧10 is assigned a value of +++ (strong mitogen)); Immunomodulatory effect (stimulation index class) (canine immune cells [18]): + (between 1 and 4.9 is assigned a value of + (weak mitogen)); Immunomodulatory effect (stimulation index class) (trout immune cells [19]): +++ (≧10 is assigned a value of +++ (strong mitogen))
